Measurements taken from patent publication US10800792B2, “Inhibitors of Bruton's tyrosine kinase and method of their use” (JANSSEN PHARMACEUTICA NV, priority 2015, dated 2020).

Molecular target: unphosphorylated-BTK kinase domain (UP-BTK), GST-tagged human BTK (389-659aa) (Homo sapiens (Human), UniProt Q06187)
Test: BTK kinase Lanthascreen binding assay
Conditions: Lanthascreen tracer competition, 60 minutes incubation, pIC50 = negative log of the IC50 in molar
Summary of the method: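 Measures how well compounds compete with a fluorescence-labelled tracer for binding to BTK in its unphosphorylated state. IC50 values were fitted and expressed as pIC50 (negative logarithm of the molar IC50).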

Sequence of unphosphorylated-BTK kinase domain (UP-BTK), GST-tagged human BTK (389-659aa) (Q06187 389-659): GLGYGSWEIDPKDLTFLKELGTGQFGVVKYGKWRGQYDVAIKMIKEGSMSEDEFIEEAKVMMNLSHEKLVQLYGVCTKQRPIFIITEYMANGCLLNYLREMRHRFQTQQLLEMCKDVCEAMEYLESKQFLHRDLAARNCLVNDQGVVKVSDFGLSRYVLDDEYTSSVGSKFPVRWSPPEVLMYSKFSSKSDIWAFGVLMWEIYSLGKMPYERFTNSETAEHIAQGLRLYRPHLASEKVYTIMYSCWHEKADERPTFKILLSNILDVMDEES

Row | BTK_I_binding pIC50 | IC50 (read-out: BTK_I_binding pIC50 (converted)) [nM] | Structure (SMILES)
1 | 6.6 |  | C=CC(=O)N1CCC[C@@H](NC(=O)c2sc3nccc4c3c2NC(=O)N4c2ccc(Oc3cccnn3)cc2)C1 [Example 791, (R)—N-(1-Acryloylpiperidin-3-yl)-4-oxo-5-(4-(pyridazin-3-yloxy)phenyl)-4,5-dihydro-3H-1-thia-3,5,8-triazaacenaphthylene-2-carboxamide]
2 | 6.4 |  | C=CC(=O)N1CCC[C@H](NC(=O)c2sc3nccc4c3c2NC(=O)N4c2ccc(Oc3ccccc3)cn2)C1 [Example 795, (S)—N-(1-Acryloylpiperidin-3-yl)-4-oxo-5-(5-phenoxypyridin-2-yl)-4,5-dihydro-3H-1-thia-3,5,8-triazaacenaphthylene-2-carboxamide]
3 | 6.3 |  | C=CC(=O)N1CCN(c2sc3nccc4c3c2NC(=O)N4c2ccc(Oc3ccccc3)cc2C)CC1 [Example 796, 2-(4-Acryloylpiperazin-1-yl)-5-(2-methyl-4-phenoxyphenyl)-3H-1-thia-3,5,8-triazaacenaphthylen-4(5H)-one]
4 | 6.2 |  | CCC(=O)N1CCC[C@@H](NC(=O)c2sc3nccc4c3c2NC(=O)N4c2ccc(Oc3ccccn3)cc2C)C1 [Example 799, (R)-5-(2-Methyl-4-(pyridin-2-yloxy)phenyl)-4-oxo-N-(1-propionylpiperidin-3-yl)-4,5-dihydro-3H-1-thia-3,5,8-triazaacenaphthylene-2-carboxamide]
5 | 6.2 |  | CC(=O)N1CCC[C@@H](NC(=O)c2sc3nccc4c3c2NC(=O)N4c2ccc(Oc3ccccn3)cc2C)C1 [Example 800, (R)—N-(1-Acetylpiperidin-3-yl)-5-(2-methyl-4-(pyridin-2-yloxy)phenyl)-4-oxo-4,5-dihydro-3H-1-thia-3,5,8-triazaacenaphthylene-2-carboxamide]
6 | 6.2 |  | Cc1cc(Oc2ccccc2)ccc1N1C(=O)Nc2c(NC(=O)C3CCCN(C(=O)/C(C#N)=C/C4CC4)C3)sc3nccc1c23 (centres unmarked) [Example 801, (E)-1-(2-Cyano-3-cyclopropylacryloyl)-N-(5-(2-methyl-4-phenoxyphenyl)-4-oxo-4,5-dihydro-3H-1-thia-3,5,8-triazaacenaphthylen-2-yl)piperidine-3-carboxamide]
7 | 6.1 |  | Cc1cc(Oc2ccccc2)ccc1N1C(=O)Nc2c(NC(=O)C3CCCN(C#N)C3)sc3nccc1c23 (centres unmarked) [Example 802, 1-Cyano-N-(5-(2-methyl-4-phenoxyphenyl)-4-oxo-4,5-dihydro-3H-1-thia-3,5,8-triazaacenaphthylen-2-yl)piperidine-3-carboxamide]
8 | 6.1 |  | C=CC(=O)N1CC[C@@H](NC(=O)c2sc3nccc4c3c2NC(=O)N4c2ccc(Oc3cccnn3)cc2)C1 [Example 803, (R)—N-(1-Acryloylpyrrolidin-3-yl)-4-oxo-5-(4-(pyridazin-3-yloxy)phenyl)-4,5-dihydro-3H-1-thia-3,5,8-triazaacenaphthylene-2-carboxamide]
9 | 6.0 |  | CCC(=O)N1CCC(C(=O)Nc2sc3nccc4c3c2NC(=O)N4c2ccc(Oc3ccccc3)cc2C)CC1 [Example 805, N-(5-(2-Methyl-4-phenoxyphenyl)-4-oxo-4,5-dihydro-3H-1-thia-3,5,8-triazaacenaphthylen-2-yl)-1-propionylpiperidine-4-carboxamide]
10 | <6 |  | CCC(=O)N1CCC[C@@H](NC(=O)c2sc3nccc4c3c2NC(=O)N4c2ccc(Oc3ccccn3)cc2)C1 [Example 807, (R)-4-Oxo-N-(1-propionylpiperidin-3-yl)-5-(4-(pyridin-2-yloxy)phenyl)-4,5-dihydro-3H-1-thia-3,5,8-triazaacenaphthylene-2-carboxamide]
11 | <6 |  | CC(=O)N1CCC[C@@H](NC(=O)c2sc3nccc4c3c2NC(=O)N4c2ccc(Oc3ccccn3)cc2)C1 [Example 808, (R)—N-(1-Acetylpiperidin-3-yl)-4-oxo-5-(4-(pyridin-2-yloxy)phenyl)-4,5-dihydro-3H-1-thia-3,5,8-triazaacenaphthylene-2-carboxamide]
12 | <6 |  | CCC(=O)N1CCC[C@@H](NC(=O)c2sc3nccc4c3c2NC(=O)N4c2ccc(Oc3cccnn3)cc2C)C1 [Example 809, (R)-5-(2-Methyl-4-(pyridazin-3-yloxy)phenyl)-4-oxo-N-(1-propionylpiperidin-3-yl)-4,5-dihydro-3H-1-thia-3,5,8-triazaacenaphthylene-2-carboxamide]
13 | <6 |  | CC(=O)N1CCC[C@@H](NC(=O)c2sc3nccc4c3c2NC(=O)N4c2ccc(Oc3cccnn3)cc2C)C1 [Example 810, (R)—N-(1-Acetylpiperidin-3-yl)-5-(2-methyl-4-(pyridazin-3-yloxy)phenyl)-4-oxo-4,5-dihydro-3H-1-thia-3,5,8-triazaacenaphthylene-2-carboxamide]
14 | <6 |  | CC(=O)N1CCC[C@@H](NC(=O)c2sc3nccc4c3c2NC(=O)N4c2ccc(Oc3cccnn3)cc2)C1 [Example 812, (R)—N-(1-Acetylpiperidin-3-yl)-4-oxo-5-(4-(pyridazin-3-yloxy)phenyl)-4,5-dihydro-3H-1-thia-3,5,8-triazaacenaphthylene-2-carboxamide]
15 |  | 1000 | Cc1cc(Oc2ccccc2)ccc1N1C(=O)Nc2c(NC(=O)C3CCCN(C(=O)/C(C#N)=C/C(C)(C)C)C3)sc3nccc1c23 (centres unmarked) [Example 816, (E)-1-(2-Cyano-4,4-dimethylpent-2-enoyl)-N-(5-(2-methyl-4-phenoxyphenyl)-4-oxo-4,5-dihydro-3H-1-thia-3,5,8-triazaacenaphthylen-2-yl)piperidine-3-carboxamide]
16 | 6.0 |  | Cc1cc(Oc2ccccc2)ccc1N1C(=O)Nc2c(NC(=O)C3CCCN(C(=O)CC#N)C3)sc3nccc1c23 (centres unmarked) [Example 817, 1-(2-Cyanoacetyl)-N-(5-(2-methyl-4-phenoxyphenyl)-4-oxo-4,5-dihydro-3H-1-thia-3,5,8-triazaacenaphthylen-2-yl)piperidine-3-carboxamide]
17 | 5.9 |  | CCC(=O)N1CCCC(C(=O)Nc2sc3nccc4c3c2NC(=O)N4c2ccc(Oc3ccccc3)cc2C)C1 (centres unmarked) [Example 818, N-(5-(2-Methyl-4-phenoxyphenyl)-4-oxo-4,5-dihydro-3H-1-thia-3,5,8-triazaacenaphthylen-2-yl)-1-propionylpiperidine-3-carboxamide]
18 | 5.9 |  | Cc1cc(Oc2ccccc2)ccc1N1C(=O)Nc2c(NC(=O)C3CCN(C(=O)CC#N)CC3)sc3nccc1c23 [Example 819, 1-(2-Cyanoacetyl)-N-(5-(2-methyl-4-phenoxyphenyl)-4-oxo-4,5-dihydro-3H-1-thia-3,5,8-triazaacenaphthylen-2-yl)piperidine-4-carboxamide]
19 | 5.9 |  | C=CC(=O)N1CCC(C(=O)Nc2sc3nccc4c3c2NC(=O)N4c2ccc(Oc3ccccc3)cc2C)CC1 [Example 820, 1-Acryloyl-N-(5-(2-methyl-4-phenoxyphenyl)-4-oxo-4,5-dihydro-3H-1-thia-3,5,8-triazaacenaphthylen-2-yl)piperidine-4-carboxamide]
20 | 5.8 |  | CCN1CCCC(C(=O)Nc2sc3nccc4c3c2NC(=O)N4c2ccc(Oc3ccccc3)cc2C)C1 (centres unmarked) [Example 821, 1-Ethyl-N-(5-(2-methyl-4-phenoxyphenyl)-4-oxo-4,5-dihydro-3H-1-thia-3,5,8-triazaacenaphthylen-2-yl)piperidine-3-carboxamide]
